Experimental findings from patent US8415307B1, “Antibiotic compositions for the treatment of gram negative infections” (priority 2010, dated 2013) are described below.

One test deals with P. aeru. The experiment in a line: MIC50 and MIC90, panel of Gram negative bacterial strains (CLSI broth microdilution). Further details: key to P. aeru MIC50 / P. aeru MIC90: A: a measured MIC value equal to that of polymyxin B; a measured MIC value less than the corresponding MIC value measured for polymyxin B; a measured MIC value greater than the corresponding MIC value measured for polymyxin B. Format: cell-based, P. Aeruginosa. Here is the method: (§1) The potency and spectrum of Compound 5 was studied using a panel of Gram negative bacterial strains.
(§2) MIC testing can be performed according to Clinical and Laboratory Standards Institute (CLSI) M7-A7 (2006) broth microdilution methods. Unless otherwise indicated, MIC values are provided in units of micrograms per milliliter.
(§3) One day prior to testing, individual colonies were isolated by streaking onto rich, non-selective Tryptic Soy agar with 5% lysed sheeps blood (TSAB) with incubation at 35-37° C. for 18-24 hours.
(§4) Cultures were prepared by touching 3-5 colonies into 3 mL of cation-adjusted Mueller Hinton Broth (caMHB) in a 14-mL tube (caMHB was prepared and sterilized according to manufacturer's specifications).
(§5) OD600 of growing cultures was measured and adjusted to approximately 10^5 colony forming units per mL (CFU/mL) in caMHB for MIC inoculation (approximately OD600 0.001).
(§6) Diluted cultures were used to inoculate 50 μL per well in broth microdilution assays (final volume 100 μl per well; compounds were prepared in two-fold dilutions).
(§7) Plates were incubated 16-20 hours at 37° C., with shaking at 200 rpm.
(§8) OD600 was determined for all wells. Growth was defined as OD600>0.1. MICs were defined as the lowest concentration producing no visible turbidity (OD600<0.1).
For orientation: In broth dilution the organism is exposed to a series of concentrations in liquid medium.

A further test concerns K. pneu. The description is as above. Details: key to K. pneu MIC50 / K. pneu MIC90: A: a measured MIC value equal to that of polymyxin B; a measured MIC value less than the corresponding MIC value measured for polymyxin B; a measured MIC value greater than the corresponding MIC value measured for polymyxin B. Format: cell-based, K. pneumonia. The method, then:
as §1, §2, §3, §4, §5, §6, §7, §8

Another test concerns P. aeruginosa #44. Nature of the test: MICs for P. aeruginosa #44 in the presence of surfactant. The format is cell-based. Further details: key: A: a MIC value measurement that is the same as that observed for polymyxin B; a MIC value measured that is lower than the comparable value observed for polymxin B; a MIC value measured that is higher than the comparable value observed for polymyxin B. The following applies: class relative to polymyxin B. Here is the method:
Antibacterial potency can be assessed by broth microdilution according to CLSI guidelines, plates can be incubated at 37° C., and aeration (rotation at 200 rpm) can be employed. In some assays, surfactant (Survanta, Abbott Laboratories) can be added to give a final concentration of 1, 10 and 40% in caMHB. Native polymyxin A, polymyxin B and the comparator compound of Formula II (polymyxin B decapeptide with an o-chlorophenyl urea tail) were included for comparison.

The next test has as its system A. baum. The experiment in a line: MIC50 and MIC90, panel of Gram negative bacterial strains (CLSI broth microdilution). The format is cell-based, A. baumanni. Details: key to A. baum MIC50 / A. baum MIC90: A: a measured MIC value equal to that of polymyxin B; a measured MIC value less than the corresponding MIC value measured for polymyxin B; a measured MIC value greater than the corresponding MIC value measured for polymyxin B. Here is the method:
as §1, §2, §3, §4, §5, §6, §7, §8

[1] abbreviates: class relative to polymyxin B, some strains multi-drug resistant.

`CC(C)C[C@H]1NC(=O)[C@H](CCN)NC(=O)[C@@H](NC(=O)[C@@H](CCN)NC(=O)[C@@H](NC(=O)[C@H](CCN)NC(=O)[C@H]2C[C@@H]2c2ccccc2)C(C)O)CCNC(=O)[C@H](C(C)O)NC(=O)[C@H](CCN)NC(=O)[C@H](CCN)NC(=O)[C@H](C(C)O)NC1=O` (single isomer, unassigned) [Compound 5]: in the test on P. aeru, the “activity against P. Aeruginosa isolates” value is given as “active”. For the same molecule, in the test on P. aeru (setting [1]), the “P. aeru MIC50” value is “A” and the “P. aeru MIC90” value is “C”. For the same molecule, the “activity against K. pneumonia isolates” value in the test with K. pneu is “active”. Besides, in the test on K. pneu (setting [1]), the “K. pneu MIC50” value is listed as “C” and the “K. pneu MIC90” value is given as “C”. In addition, the “MIC P. aeruginosa #44, 0% surfactant” value with P. aeruginosa #44 (0% surfactant) is “C”. For the same molecule, in the test with P. aeruginosa #44 (10% surfactant (Survanta) in caMHB), the “MIC P. aeruginosa #44, 10% surfactant” value was “B”. The “MIC P. aeruginosa #44, 40% surfactant” value in the test on P. aeruginosa #44 (40% surfactant (Survanta) in caMHB) was “B”. Also, in the test with A. baum, the “activity against A. baumanni isolates” value is recorded as “active”. Moreover, in the test on A. baum (setting [1]), the “A. baum MIC50” value is listed as “C” and the “A. baum MIC90” value was “C”.
